Test results: patent publication US20250195498A1, “INHIBITOR OF CELLULAR PURINE NUCLEOTIDE SALVAGE PATHWAY ENZYME FOR USE IN THE TREATMENT AND/OR PREVENTION OF HELICOBACTER PYLORI INFECTION AND/OR DISEASE ASSOCIATED WITH SUCH INFECTION AND PHARMACEUTICAL COMPOSITION COMPRISING THE SAME” (UNIWERSYTET WARSZAWSKI, priority 2022, published 2025)
Where two headings read alike, the source gives them in different places.

Legend:
PNP from E. coli [1] = molecular target: T1, PNP from E. coli (Escherichia coli, UniProt P0ABP8); experiment: Inhibition of PNP from E. coli; type: biochemical; details: previous work of the inventors
T1 sequence (P0ABP8 2-239): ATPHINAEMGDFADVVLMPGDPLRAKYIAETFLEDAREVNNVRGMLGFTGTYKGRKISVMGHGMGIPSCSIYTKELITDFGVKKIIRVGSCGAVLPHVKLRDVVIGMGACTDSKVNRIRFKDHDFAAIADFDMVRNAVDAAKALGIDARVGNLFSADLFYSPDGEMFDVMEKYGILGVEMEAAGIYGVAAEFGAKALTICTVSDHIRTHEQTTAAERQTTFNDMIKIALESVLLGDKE

[2] = molecular target: T2, PNP from H. pylori strain 26695 (Helicobacter pylori, UniProt P56463); experiment: Inhibition of PNP from H. pylori, spectrophotometric phosphorolysis assay; type: biochemical; details: formycins; kinetic methods of Example 1; read-out: inhibition constant
T2 construct: made in house; host or cells: E. coli
T2 sequence (P56463 whole entry): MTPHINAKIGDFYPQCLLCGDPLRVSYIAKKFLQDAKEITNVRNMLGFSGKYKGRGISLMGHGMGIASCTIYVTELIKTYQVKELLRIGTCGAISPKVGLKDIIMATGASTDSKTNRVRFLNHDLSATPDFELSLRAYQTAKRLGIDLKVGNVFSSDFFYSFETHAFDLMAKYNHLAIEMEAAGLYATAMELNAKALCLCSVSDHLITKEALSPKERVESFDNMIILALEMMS
Description: The specific activity of PNP is usually determined using inosine as a substrate, in an assay in which the phosphorolysis product, hypoxanthine, is oxidized to uric acid in a reaction catalysed by xanthine oxidase. However, in the inhibition assay of PNP from H. pylori strain 26695, 7-methylguanosine (m^7Guo) and guanosine (Guo) were used as nucleoside substrates to avoid potential inhibition of xanthine oxidase by the test compounds. Phosphorolysis of these two substrates can be observed using a direct spectrophotometric method in a known manner.
Enzymatic activity was studied in a quartz cuvette with an optical path length of 1 cm or 0.5 cm. The absorbance of the reaction mixture, at the observation wavelength, never exceeded 1.2. The reaction volume was 1 ml or 1.4 ml in cuvettes with optical path lengths of 1 cm and 0.5 cm, respectively. The reaction mixture contained 50 mM Hepes/NaOH buffer, pH 7.0, 50 mM phosphate buffer, pH 7.0 (unless otherwise indicated), nucleoside substrate and inhibitor (with the latter not added to the reference/control reactions). Reactions were usually initiated by adding the enzyme to a cuvette containing the other reaction components. However, in cases where possible slow formation of an inhibitor-enzyme complex was checked, a second variant was also used involving incubation of the enzyme in a reaction mixture containing the inhibitor but lacking the substrate, 7-methylguanosine, and initiation of the reaction by adding this substrate.
In order to determine the inhibition constants and determine the molecular mechanism of inhibition, equations describing different mechanisms of inhibition were fitted to the obtained experimental data. GraphPad Prism 8 program was used. The model best describing the obtained data was selected based on the sum of squares of deviations using the F test for models with different number of parameters and the Akaike criterion (AIC) for models with the same number of parameters.
The following equations were used to describe competitive inhibition, characterized by the inhibition constant Kic, [1], uncompetitive, characterized by the inhibition constant Kiu, [2], non-competitive, characterized by the inhibition constant Kin, [3], and mixed, characterized by the inhibition constants Kiu and Kic, [4] (Segel, 1993):
The last equation can also be represented in the following form, as used by GraphPad Prism software, where Kiu=alpha Kic:
Immucillin A was chosen as the most promising one for potential pharmacological use in combating H. pylori infection because immucillin A has an amino substituent at position 6 of the 9-dazapurine ring, while PNP found in the human body requires a substituent at this position having electron-pairs-hydrogen bond acceptors, such as a substituent in the form of a keto group, to strongly bind the ligand. According to the invention, it is therefore believed that immucillin A will not interact with the host PNP, and thus allow selective inhibition of the PNP from H. pylori. Using the methods described above, the effect of immucillin A on the rate of the 7-methylguanosine (m^7Guo) phosphorolysis reaction catalysed by PNP from H. pylori was examined (FIG. 1). Since it is known (Schramm, 2018) that immucillins form a strongly bound complex with the enzyme relatively slowly, reactions were initiated by adding the substrate, m^7Guo, to a cuvette in which the enzyme was incubated with the inhibitor, as described in Example 1.
Data analysis was also performed as described in this Example. The range of substrate concentrations tested was 10-200 μM or 10-280 μM (shown in FIG. 4), and the range of inhibitor concentrations was chosen according to the observed degree of inhibition of the reaction, in order to obtain a significant degree of inhibition that allows determination of the inhibition mechanism and determination of inhibition constants (see FIG. 4). […]

H. pylori strain 26695 = experiment: Growth curve method / MIC in liquid culture, strain 26695; type: cell-based, Helicobacter pylori; details: 2.5 mM; strain not stated, method of Example 3
Procedure: The representative PNP inhibitor from H. pylori included in this study was immucillin A. The experiment was conducted using the growth curve method (two-fold serial dilutions in liquid medium). The tested H. pylori strains were cultured in Petri dishes with BHI solid medium supplemented with 10% FBS and 1% H. pylori Selective Supplement antibiotic kit, in anaerostats under microaerophilic conditions (5% 02, 10% CO2, 85% N2) at 37° C. for 3 days. Liquid culture of H. pylori was conducted overnight with shaking at 37° C. under microaerophilic conditions in BHI medium supplemented with 10% FBS and 1% H. pylori Selective Supplement antibiotic kit. Subsequently, for the essential experiment of determining the minimum inhibitory concentration (MIC), double strengthened liquid BHI medium was prepared, that is, supplemented with 20% FBS and a 2% set of H. pylori Selective Supplement antibiotics.
Bacterial proliferation inhibition experiments were carried out in 24-deep-well 2 ml flat-bottomed plates at a solution volume per well of 0.5 ml. In a single well, double strengthened (relative to the concentration planned for testing) solutions of the test inhibitor and double strengthened liquid BHI medium inoculated with H. pylori (10^4-10^5 CFU/ml in the final volume in the well, corresponding to the optical density of the culture OD600=0.05) were mixed together in a 1:1 ratio.
Kanamycin at a concentration of 25 μg/ml (Irie et al., 1997) was used as a positive control, while Mili-Q deionized water and BHI medium not inoculated with bacteria were used as negative controls. Plates were shaken at 37° C., under microaerophilic conditions. […] After 24 hours, the OD600 of samples containing the negative control, i.e. with Mili-Q deionized water, was about 1.2-1.4, corresponding to a bacterial concentration of about […].
In addition, the method proposed by Knezevic et al. (2018) was used to check whether the observed OD600 was from live bacterial cells. For this purpose, an equal volume of Christensen's double strength urea broth (that is, containing twice the concentration of all components) was added to the wells after incubation, and the plates were additionally incubated for 4 hours in an oxygen atmosphere at 37° C. During incubation, in wells with urease produced by live bacteria, urea is converted to ammonia and carbon dioxide, changing the pH of the solution and thus the colour of the phenol red indicator contained in the medium (from orange to purple).
All experiments were performed in triplicate.
The experiments were carried out using the growth curve method as described in Example 3, and the results obtained for two of the compounds tested are shown in FIG. 5. As the water solubility of the compounds tested, with the exception of 2,6-diCl-Pu, is relatively poor, two experiments were carried out: the first with the maximum concentration possible under the experimental conditions in aqueous solution with a small admixture of DMSO, and the second with higher concentrations that led to partial precipitation of the compound.
The antibacterial activity of two compounds, mefloquine (in the form of hydrochloride) and quinine, described in the literature as potent in vitro inhibitors of the PNP enzyme from Plasmodium falciparum (Dziekan et al., 2019), was tested. Using a two-fold serial dilution method in liquid medium (as described in Example 3), the MIC values for mefloquine and quinine were determined against clinical H. pylori strains resistant to MTZ, CLR and MTZ+CLR (M26, M91, M92 and M93), as well as the reference H. pylori strain 26695. Four clinical H. pylori strains isolated from adults, from primary infections (the subjects had never previously been treated against H. pylori infection) were tested. These strains come from the collection of the Department of Microbiology of the Medical University of Wroclaw and were obtained due to collaboration with Prof. Grażyna Gościniak, MD, PhD. […]

[3] = molecular target: T2, PNP from H. pylori strain 26695; details: formycins; Wojtyś et al., 2021; read-out: inhibition constant; cited from earlier work
PNP from E. coli [4] = molecular target: T1, PNP from E. coli; details: read-out: inhibition constant; cited from earlier work
human PNP = molecular target: T3, human PNP (Homo sapiens, UniProt P00491); details: Bzowska et al., 2000; cited from earlier work
T3 sequence (P00491 1-289): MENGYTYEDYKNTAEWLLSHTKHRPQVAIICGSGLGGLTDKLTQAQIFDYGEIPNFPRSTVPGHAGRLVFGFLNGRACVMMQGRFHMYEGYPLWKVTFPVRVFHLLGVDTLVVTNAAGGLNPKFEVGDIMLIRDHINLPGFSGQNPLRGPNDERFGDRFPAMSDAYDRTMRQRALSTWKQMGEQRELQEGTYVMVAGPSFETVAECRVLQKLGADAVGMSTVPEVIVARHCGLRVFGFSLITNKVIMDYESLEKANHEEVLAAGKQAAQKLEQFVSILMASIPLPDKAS

| Compound | stronger inhibition than formycin A (PNP from E. coli [1]) | Ki [2] | inhibition of H. pylori growth (% of the growth observed without the inhibitor) (H. pylori strain 26695) | Ki [3] | Ki (PNP from E. coli [4]) | inhibition of human PNP (human PNP) |
| --- | --- | --- | --- | --- | --- | --- |
| Cn1cnc2c([C@@H]3O[C@H](CO)C(O)[C@@H]3O)nnc-2c1N (some centres unmarked) [6-methylformycin A] | 10 fold |  |  |  |  |  |
| Nc1ncnc2c([C@@H]3O[C@H](CO)[C@@H](O)[C@H]3O)[nH]nc12 [formycin A] |  | 14 µM | 50% | 14 µM | ~5 µM | not an inhibitor |
| O=c1[nH]cnc2c([C@@H]3O[C@H](CO)[C@@H](O)[C@H]3O)n[nH]c12 [formycin B] |  | 1 µM | very weak inhibition | 1 µM | ~5 µM | very weak inhibitor |
